# Laboratory results published in EP4467137A1, “TREATMENT OF FRONTOTEMPORAL DEMENTIA OR FRONTOTEMPORAL LOBAR DEMENTIA” (Universidad Autónoma de Madrid, priority 2023, dated 2024).
# Assays:
# hyperphosphorylated tau [1] = assay: In vivo hTauP301L model: hippocampal hyperphosphorylated tau by AT8 and AT180 immunofluorescence; design: species or system mouse; details: 35 days
# Method: (§1) In vivo hTau301L model was induced by stereotaxic injection of AAV-hTauP301L (AAV-hTau) particles as described in [Luengo, Enrique et al. "Implication of type 4 NADPH oxidase (NOX4) in tauopathy." Redox biology vol. 49 (2022): 102210. doi:10.1016/j.redox.2021.102210 ]. Control animals were injected with AAV-GFP. Evaluation of hyperphosphorylated tau in sarkosyl soluble and insoluble fractions; microgliosis; AT8 and AT180 by immunofluorescence; and cognitive test were performed as described previously [Luengo, Enrique et al. "Implication of type 4 NADPH oxidase (NOX4) in tauopathy." Redox biology vol. 49 (2022): 102210. doi:10.1016/j.redox.2021.102210 ].
# (§2) Oral administration of Compound 1 at different dosages (20 mg·kg^-1 and 50 mg·kg^-1) was administered embedded in gelatine. The compound was given in a mixture of 10 % gelatine from porcine skin and 10 % sucralose in water, heated in a microwave oven. Before Compound 1 addition, gelatine mixture was left at RT. Afterwards, the compound was added, evenly mixed and plated 1 mL·well^-1 in a P24 plate. Before AAV injection, mice were trained to eat the gelatines by giving them one gelatine (without compound) per day for 4 consecutive days. After AAV injection, mice were treated once a day with control or Compound 1 gelatines for 35 consecutive days. This approach was followed in adult (3-4 months old) and aged (16-18 months old) mice injected with AAV-GFP or AAV-hTauP301L.
# (§3) Example 2.5. Compound 1 ameliorates hTauP301L induced FTD and cognitive decline in adult (3-4 months old) mice. FTD was generated in adult male and female C57BL/6J mice (3-4 months old) by bihippocampal injection of AAV-hTau particles containing the P301L mutation. Mice were treated orally once a day with a single dose of 20 or 50 mg/kg of Compound 1 formulated in gelatines the day after stereotaxic delivery of AAVs (GFP or TauP301L, to controls and FTD, respectively). After 35 days treatment, hyperphosphorylated tau levels were evaluated by immunofluorescence and by WB in soluble and insoluble in sarkosyl fractions. Also, behavioural tests were conducted to study the cognition status of the mice.
# Hyperphosphorylated tau levels measured with the antibodies AT8 (p-Ser202/p-Thr205) and AT180 (p-Thr231) were analysed by immunofluorescence in fixed postmortem brain slices of treated mice (Figure 7A).
# (§4) Example 2.6. Compound 1 ameliorates hTauP301L induced FTD and cognitive decline in aged (16-18 months old) mouse. To include the aging effect in the FTD model, the previous experiments were replicated in male and female 16-18 months old C57/BL6J mice.
# [2] = Oxygen Radical Absorbance Capacity Assay (ORAC); format: physicochemical; details: ORAC > 1.0 is a better ROS scavenger than trolox
# Method: The Oxygen Radical Absorbance Capacity Assay (ORAC) was performed as described [Herrera-Arozamena, Clara et al. "Resveratrol-Based MTDLs to Stimulate Defensive and Regenerative Pathways and Block Early Events in Neurodegenerative Cascades." Journal of medicinal chemistry vol. 65,6 (2022): 4727-4751. doi:10.1021/acs.jmedchem.1c01883].
# [3] = In vivo hTauP301L model: spatial memory tests (T-maze, Object Location test); design: species or system mouse; details: 35 days; for OLT discrimination index / T-maze percentage of success: adult mice
# Method: as §1, §2, §3
# Spatial memory was measured using the T-maze (Figure 9A) and the Object localization tests (OLT; Figure 9B).
# as §4
# hyperphosphorylated tau [4] = assay: Hyperphosphorylated tau (AT8 immunofluorescence) in primary neurons treated with AAV-hTauP301L; format: cell-based, mouse; details: treatment every other day for 8 days, compound 1 at 30 µM
# [5] = adult (3-4 months old) mice, 50 mg/kg/day oral
# [6] = aged (16-18 months old) mice, 50 mg/kg oral
structure (smiles),measurement,setting,value
"COc1ccc2c(c1)CC(c1c[nH]c3ccc(OC)cc13)N2 (stereo not drawn) [Compound 1, 5-Methoxy-3-(5-methoxyindolin-2-yl)-1H-indole]","AT8 fluorescence in hippocampus (DG, CA1 and CA3)",hyperphosphorylated tau [1]; [5],significantly reduced
same,"AT180 fluorescence in hippocampus (DG, CA1 and CA3)",hyperphosphorylated tau [1]; [5],significantly reduced
same,"hyperphosphorylated tau levels by AT8 in DG, CA3 and CA1",hyperphosphorylated tau [1]; [6],reduced
same,"hyperphosphorylated tau levels by AT180 in DG, CA3 and CA1",hyperphosphorylated tau [1]; [6],reduced
same,ORAC (trolox equiv.),[2],2.3 ± 0.3 trolox equiv.
same,OLT discrimination index,[3]; 20 mg/kg or 50 mg/kg oral,dose-dependent improvement
same,T-maze percentage of success,[3]; 20 mg/kg or 50 mg/kg oral,dose-dependent improvement
same,OLT discrimination index,[3]; 50 mg/kg oral,total recovery
same,T-maze percentage of success,[3]; 50 mg/kg oral,total recovery
same,"spatial memory loss, OLT",[3]; [6],prevented
same,"spatial memory loss, T-maze",[3]; [6],prevented
same,AT8 intensity levels,hyperphosphorylated tau [4],reduced
